Assay results taken from patent publication US8980575B2, “Process to avoid inhibition of acetogens by CO” (Ineos Bio SA, priority 2012, dated 2015).

Legend:
[1] = test system: Clostridium ljungdahlii; assay: Fermentation with high CO feed-gas, head-space CO partial pressure control (Example 1); format: cell-based; conditions: 95% CO/5% N2 feed gas, head-space CO controlled; inoculum 1.28 g/l; within 41.4 hours after inoculation
Experimental: (§1) New Brunswick and CelliGen 310 bioreactors containing modified 1× ethanol medium were inoculated with 1.28 g/l of actively growing (in syngas) Clostridium ljungdahlii. Before inoculation, the rate of agitation of the reactor was set to 800 rpm. Gas and liquid samples taken from the reactor at every 1 to 4 hour intervals were analyzed for consumption or production of various gas components, broth acetic acid concentration, broth ethanol concentration and the optical density of the culture. Also the composition of the feed-gas was measured daily and the flow to the reactor was measured real time by the mass flow controller regulating feed-gas to the reactor. High CO composition feed gas of 95% CO/5% N2 was utilized.
The following method was used to regulate rate of gas supply to the reactor: X=(head space CO %/100)×(measured reactor pressure(psig)+atmospheric pressure/atmospheric pressure(14.7))
if x is 0.08 or below gas flow to the reactor was increased by 7.6% of the current mole value of gas flow rate to the reactor
if X is 0.12 or higher gas flow to the reactor was decreased by 7.6% of the current mole value of gas flow rate to the reactor
(§2) A Shimadzu GC-2014 gas chromatograph was used to measure the broth ethanol and acetic acid concentrations. SRI 8610c gas chromatograph was used to measure the components of the feed-gas.

[2] = test system: Butyribacterium methylotrophicum; assay: Fermentation with low CO feed-gas (Example 4); format: cell-based; conditions: 9.5% CO/90.5% N2 feed gas, 534 ml/min; inoculum 0.86 g/l; within 44.4 hours after inoculation
Experimental: as §1, with “310 reactor” for “310 bioreactors”, “medium was” for “medium were”, “with 0.86” for “with 1.28”, “(in 5% CO/95% N2) Butyribacterium methylotrophicum. At the start of the experiment” for “(in syngas) Clostridium ljungdahlii. Before inoculation,”, “reactor.” for “reactor. High CO composition feed gas of 95% CO/5% N2 was utilized.”
(§3) A CO composition feed gas of 9.5% CO/90.5% N2 was utilized and the flow was set to 534 ml/min. All through out the experiment the rate of feed gas to the reactor was not adjusted.
This method was utilized to keep the dissolved CO in the culture broth below 0.12 mmol/l at around 37 to 38° C. According to the Henry's law the maximum dissolved CO concentration that can be obtained by feeding a gas containing 9.5% is 0.079 mmol.
as §2

[3] = test system: Clostridium ljungdahlii; assay: Inhibitory CO feed rates, four stage protocol (Example 6); format: cell-based; conditions: for CRT Average (cell retention time): from 18 hours after beginning to end of stage
Experimental: Clostridium ljungdahlii was grown in a bioreactor (New Brunswick BioFlo I or IIc).
To achieve a conductivity of 9 mS/cm, a medium was made using 1.5× of all components except for vitamins. A four stage protocol was used as follows:
Stage 1: A culture was grown up in a 2 L bioreactor using syngas. With a cell density of 2.9 g/L, the gas source was switched from syngas mixture to a CO/N2 mixture containing 95% CO and 5% N2.
Stage 2: At T=26 hrs, a CO conversion target was set at >90%.
Stage 3: At T=70 hrs, the CO conversion target was decreased from 90% to 85%.
Stage 4: At T=97 hrs, the CO conversion target was decreased from 85% to 80%.
Dissolved CO was calculated for each gas sample using representative KLa values for a particular gas flow rate. These values were then averaged to find a representative value for each stage. Pictures were taken throughout the experiment in order to qualitatively study the morphology change over time.
Average cell retention time (CRT) was calculated for the period of 18 hours after the beginning of each stage to the end of each stage.

[4] = test system: Clostridium ljungdahlii; assay: Fermentation with low CO feed-gas (Example 3); format: cell-based; conditions: 9.5% CO/90.5% N2 feed gas, 534 ml/min; inoculum 0.38 g/l; within 90.6 hours after inoculation
Experimental: as §1, with “CelliGen 310 reactor containing modified” for “CelliGen 310 bioreactors containing modified”, “inoculated with 0.38 g/l of” for “inoculated with 1.28 g/l of”, “was measured in real time” for “was measured real time”, “the reactor.” for “the reactor. High CO composition feed gas of 95% CO/5% N2 was utilized.”
as §3
The method was utilized to keep the dissolved CO in the culture broth below 0.12 mmol/L at around 37 to 38° C. According to the Henry's Law, the maximum dissolved CO concentration that can be obtained by feeding a gas containing 9.5% is 0.079 mmol.
as §2

[5] = Dissolved CO by Henry's law calculation; format: physicochemical; conditions: feeding a gas containing 9.5% CO, 37 to 38° C.
Experimental: In order to calculate dissolved CO, the mass transfer coefficient (KLa) of the system needs to be determined. KLa value will depend on various factors, such as architecture of the reactor, superficial gas flow rate, un-aroused volume, temperature and agitation power. Therefore KLa values vary from reactor conditions to condition.
Henry's law:P=KHC • Henry's constant=KH=p/c (L(psi)/mol) • at 38° C., KH=17640 (L(psi)/mol)
In a CSTR containing CO consuming bacteria, the following equation may be used to estimate dissolved CO. • KLa((PCO(head space)/KH)−(PCO(liquid)/KH))=COU • COU=carbon monoxide uptake (mol/L/min) • KLa=mass transfer coefficient (min^−1) • (PCO(liquid)/KH)=dissolved CO (mol/L)
When dissolved CO=0 • KLa=COU/(PCO(head space)/KH) • KLa((PCO(head space)/KH)−(PCO(liquid)/KH))=COU • KH=L(psi)/mol

[6] = test system: Clostridium ljungdahlii; assay: Effect of CO feed rates on CO conversion (Example 5); format: cell-based
Experimental: Clostridium ljungdahlii was grown and maintained using only CO and N2 (feed gas) in a bioreactor (New Brunswick BioFlo I or IIc). During the experiment, rate of feed gas was altered to obtain desired culture conversions. Lower culture conversions were employed to provide excess dissolved CO to Clostridium ljungdahlii.
Low culture conversions of CO was used as s method to provide excess dissolved CO to the culture. For example, when a culture in a reactor can convert X amount of CO at a given agitation and at a given flow rate, the dissolved CO can be increased by increasing the flow rate so that culture conversions go below X.

[7] = test system: Clostridium ljungdahlii; assay: Effect of CO concentration on growth, bioreactor runs (Example 7); format: cell-based; conditions: for bacterial cell density over time: inoculum 3.8 g/L
Experimental: Clostridium ljungdahlii was grown in a bioreactor (New Brunswick BioFlo I or IIc). The following adjustments were made:
Conductivity of the culture was adjusted by adjusting the strength of the growth medium, for example concentration of all the components, except vitamin in the growth medium was increased by 1.5 times to increase the conductivity of the culture from approximately 7 mS to approximately 9.5 mS. […]
Initial gas flow rate of each experiment was kept unchanged throughout the experiment. Reactor parameters, when CO conversion values reach a plateau after a successful start-up, were used to calculate KLa for relevant conditions.
Syngas composition was 30% CO, 15% H2, 10% CO2 and 45% N2.

[8] = at 38° C.; cited from earlier work
[9] = test system: Butyribacterium methylotrophicum; assay: Fermentation with high CO feed-gas, head-space CO partial pressure control (Example 2); format: cell-based; conditions: 95% CO/5% N2 feed gas, head-space CO controlled; inoculum 0.92 g/l; within 68 hours after inoculation
Experimental: as §1, with “reactor” for “bioreactors”, “0.92” for “1.28”, “Butyribacterium methylotrophicum.” for “Clostridium ljungdahlii.”
The method described in Example 1 was used to regulate the rate of gas supply to the reactor.
as §2

[10] = Stage 2, average dissolved CO 0.04 mmol
[11] = Stage 3, average dissolved CO 0.12 mmol
[12] = Stage 4, average dissolved CO 0.29 mmol
[13] = Run #2: 1× growth medium, 35 ml/min syngas
[14] = Run #3: 1× growth medium, 40 ml/min syngas
[15] = Run #4: 1× growth medium, 45 ml/min syngas
[16] = Run #10: 1.5× growth medium, 20 ml/min syngas

With `[C-]#[O+]` [CO, carbon monoxide] the cell mass [1] was 8.24 g/L, the cell mass [2] was 3.32 g/L and the “SCU Average (specific CO uptake)” value [3, 10] was 0.581 mmol/g/min. The “CRT Average (cell retention time)” value [3, 10] was 23.74 h, the “SCU Average (specific CO uptake)” value [3, 11] was 0.559 mmol/g/min and the “CRT Average (cell retention time)” value [3, 11] was 31.89 h. The “SCU Average (specific CO uptake)” value [3, 12] was 0.360 mmol/g/min, the “CRT Average (cell retention time)” value [3, 12] was 75.92 h and the “dissolved CO at which specific CO uptake proceeded on a downward trend” value ([3]; Stage 4, conversions coming down to 80%) was “around 0.2 mmol”. The cell mass [4] was 6.21 g/L, the “maximum dissolved CO concentration according to Henry's Law” value [5] was 0.079 mmol and the “ethanol production, cell mass and morphology after recovery” value ([6]; CO conversions returned to approximately 80%) was “returned to healthy culture levels”. For the same compound, the “signs of inhibition (ethanol and acetic acid production, SCU, cell mass, cell morphology)” value ([6]; at approximately 80% CO conversions) was “didn't show signs of inhibition”, the inhibition of culture ([6]; feed gas increased to maintain CO conversions below approximately 70%) was “inhibited” and the doubling time ([7]; Run #1: 1× growth medium, 25 ml/min syngas) was “about 20 hours”. The initial lag period ([7]; Run #1: 1× growth medium, 25 ml/min syngas (30% CO)) was “about 20 hours”, the doubling time [7, 13] was “about 20 hours” and the initial lag period [7, 13] was “about 36 hours”. The cell morphology ([7]; Run #2: 35 ml/min syngas, at about 51 hours after inoculation) was “elongated and curved”, the doubling time [7, 14] was “about 20 hours” and the initial lag period [7, 14] was “about 45 hours”. For the same compound, the cell morphology ([7]; Run #3: 40 ml/min syngas, at about 51 hours after inoculation) was “elongated and curved”, the doubling time [7, 15] was “about 20 hours” and the initial lag period [7, 15] was “about 50 hours”. The cell morphology ([7]; Run #4: 45 ml/min syngas, at about 55 hours after inoculation) was “elongated and curved”, the “lag period (culture continued to lag)” value ([7]; Run #5: 1× growth medium, 50 ml/min syngas) was > 70 h and the doubling time ([7]; Run #6: 1× growth medium, 50 ml/min syngas, higher inoculum) was “about 20 hours”. For the same compound, the initial lag period ([7]; Run #6: 1× growth medium, 50 ml/min syngas, higher inoculum (4.8 vs 3.8 g/L cells)) was “about 10 hours”, the cell morphology ([7]; Run #6: 50 ml/min syngas, higher inoculum, at about 20 hours after inoculation) was “short and consistent in nature” and the “bacterial cell density over time” value ([7]; Run #7: 1.5× growth medium, 45 ml/min syngas) was “went down with time”. The “bacterial cell density over time” value ([7]; Run #8: 1.5× growth medium, 35 ml/min syngas) was “went down with time”, the “bacterial cell density over time” value ([7]; Run #9: 1.5× growth medium, 30 ml/min syngas) was “went down with time” and the doubling time [7, 16] was 20 h. For the same compound, the “bacterial cell density over time” value [7, 16] was “went up with time”, the “Henry's constant KH” value [8] was 17640 L(psi)/mol and the cell mass [9] was 7.88 g/L.
